Measured values as given in PubChem BioAssay (NCI).
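Protocol summary: plate cells (96-well), add compound at 5 concentrations, incubate 48 h, interpolate endpoints linearly. GI50: concentration for 50% inhibition of growth. TGI marks complete inhibition of growth.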

How the values were obtained:
Experiment in all cases: DTP human tumour cell line panel, 48 h
[1] = test system: 786-0 renal
[2] = test system: SF-268 CNS
[3] = test system: SW-620 colon
[4] = test system: UACC-257 melanoma
[5] = test system: OVCAR-8 ovarian
[6] = test system: COLO 205 colon
[7] = test system: UACC-62 melanoma
[8] = test system: IGROV1 ovarian
[9] = test system: PC-3 prostate
[10] = test system: DU-145 prostate

Compound	GI50 [1] [µM]	TGI [1] [µM]	GI50 [2] [µM]	TGI [2] [µM]	GI50 [3] [µM]	TGI [3] [µM]	GI50 [4] [µM]	TGI [4] [µM]	GI50 [5] [µM]	TGI [5] [µM]	GI50 [6] [µM]	TGI [6] [µM]	GI50 [7] [µM]	TGI [7] [µM]	GI50 [8] [µM]	TGI [8] [µM]	TGI [9] [µM]	GI50 [9] [µM]	GI50 [10] [µM]	TGI [10] [µM]
CC(=O)[CH-]C(=O)c1ccccc1.CC(=O)[CH-]C(=O)c1ccccc1.[CH2-]CCC.[CH2-]CCC.[Sn+4]	1.09	2.28	1.19	3.39	0.283	0.964	0.343	1.69	1.36	3.1	0.984	2.47	0.754	2.17	1.57	3.28	–	–	–	–
CC1(C)CC(=O)c2c(oc3cc(O)c(O)cc23)C1	–	> 100	–	> 100	–	37.2	–	> 100	–	55.6	–	> 100	–	32	–	> 100	–	–	–	–
C/C(=N/NC(=O)CC(=O)N(C(=O)c1ccccc1Cl)c1ccc(C)cc1)c1cc2ccccc2oc1=O	–	> 100	–	> 100	–	> 100	–	> 100	–	> 100	–	> 100	–	> 100	–	> 100	–	–	–	–
CC1=C(C(=O)CC(=O)C(=O)NC2C3CC4CC(C3)CC2C4)Sc2ccccc2N1 (stereo unspecified)	–	> 100	–	> 100	–	> 100	–	> 100	–	> 100	–	> 31.6	–	> 100	–	> 100	–	–	–	–
COc1cc([C@H]2c3[nH]c4ccccc4c3C[C@H]3COC(=O)N32)cc(OC)c1O	–	10.7	–	> 72.1	–	> 70	–	> 100	–	63.9	–	37.5	–	43.4	–	> 86.3	> 100	–	–	–
O=C(/C=C/c1cn(-c2ccccc2)nc1-c1ccc([N+](=O)[O-])cc1)c1ccc(Cl)cc1	3.94	55.3	2.78	> 100	–	–	> 100	> 100	6.33	> 100	–	–	6.01	> 100	3.54	> 100	–	–	–	–
CC1(C)C2CCC13C(=O)C1OC3(C2)C2C(=O)c3c(O)cccc3C(=O)C12 (stereo unspecified)	0.319	0.829	3.06	15.3	–	–	0.792	2.43	0.821	2.68	4.09	16.1	0.2	0.403	–	–	3.09	0.835	0.196	0.386
c1cnc2[nH]cc(-c3csc(-c4cn(CCCN5CCCCC5)c5ccccc45)n3)c2c1	1.63	3.06	1.56	3.19	–	–	1.97	3.73	–	–	–	–	1.7	3.3	–	–	3.05	1.59	1.74	3.16
COc1ccc2[nH]c3c(=O)[nH]ncc3c2c1	–	> 100	–	> 100	–	> 100	–	> 100	–	> 100	–	> 100	–	> 100	–	> 100	–	–	–	–
Cc1ccccc1NC(=O)C(=O)CC(=O)c1ccc([N+](=O)[O-])cc1	–	> 100	–	> 100	–	> 100	–	> 100	–	> 100	–	> 100	–	> 100	–	> 100	–	–	–	–
CC(=O)OCCC(O[Si](c1ccccc1)(c1ccccc1)C(C)(C)C)C(C)(C)O (stereo unspecified)	–	77.2	–	> 100	–	> 100	–	> 100	–	> 100	–	30.3	–	> 100	–	> 100	–	–	–	–
CCOC(=O)C[C@@]12CCCNC1(C)CCc1ccccc12 (stereo partly specified)	–	> 100	–	–	–	> 100	–	> 100	–	> 100	–	> 100	–	> 100	–	> 100	–	–	–	–
COC(=O)C1(F)C(=O)NC(=O)NC1OC (stereo unspecified)	–	> 100	–	> 100	–	> 100	–	> 100	–	> 100	–	> 100	–	> 100	–	> 100	–	–	–	–
O=C1C(c2ccccc2)=C(c2ccccc2)[C@H](c2ccccc2)[C@]1(Cc1nnn(-c2ccc([N+](=O)[O-])cc2)c1N1CCOCC1)c1ccccc1	–	> 37.5	–	–	–	> 37.5	–	> 37.5	–	> 37.5	–	> 37.5	–	> 37.5	–	> 37.5	–	–	–	–
CC(C)(C)c1cc(CCC(=O)Nc2ccc(Cl)cc2Cl)nc(N)n1	–	> 100	–	> 100	–	> 100	–	> 100	–	> 100	–	> 100	–	> 100	–	> 100	–	–	–	–
CCCCCCCCCC(=O)Oc1cccc2onc(C)c12	–	> 100	–	> 100	–	> 100	–	> 100	–	> 100	–	> 100	–	> 100	–	> 100	–	–	–	–

Compound	GI50 [1] [µM]	TGI [1] [µM]	GI50 [2] [µM]	TGI [2] [µM]	GI50 [3] [µM]	TGI [3] [µM]	GI50 [4] [µM]	TGI [4] [µM]	GI50 [5] [µM]	TGI [5] [µM]	GI50 [6] [µM]	TGI [6] [µM]	GI50 [7] [µM]	TGI [7] [µM]	GI50 [8] [µM]	TGI [8] [µM]	TGI [9] [µM]	GI50 [9] [µM]	GI50 [10] [µM]	TGI [10] [µM]
NC(=O)c1c[se]c(C2OC(COP(=O)(O)CP(=O)(O)OCC3OC(n4cnc5c(N)ncnc54)C(O)C3O)C(O)C2O)n1 (stereo unspecified)	–	> 100	–	> 100	–	> 100	–	> 100	–	> 100	–	> 100	–	–	–	> 100	–	–	–	–
O=[N+]([O-])C1C2C=CC(C2)[C@H]1c1ccc(Cl)cc1Cl (stereo partly specified)	–	> 100	–	> 100	–	> 100	–	99	–	> 100	–	–	–	–	–	–	–	–	–	–
O=C(O)[C@@H]1CCCC[C@@H]1C(=O)N(C1CCCCC1)C1CCCCC1	–	> 100	–	> 100	–	> 100	–	> 100	–	> 100	–	> 100	–	> 100	–	> 100	–	–	–	–
CC1(C)OC(COCCOCCCCCO)C(COCCOCCCCCO)O1 (stereo unspecified)	–	> 100	–	> 100	–	> 100	–	> 100	–	> 100	–	> 100	–	> 100	–	> 100	–	–	–	–
CC12OC(C(=O)C13CCC3)C1C(=O)c3ccccc3C(=O)C12 (stereo unspecified)	> 100	> 100	> 100	> 100	–	–	44	> 100	61.8	> 100	> 100	> 100	–	–	> 100	> 100	> 100	70.7	–	–
COc1cc2cccc(N=Cc3c(Br)ccc(OC)c3OC(C)C)c2cc1OC	–	69.9	–	> 100	–	> 100	–	> 100	–	> 100	–	> 100	–	> 100	–	> 100	–	–	–	–
Cc1nnc(N=Nc2c(O)[nH]c3ccccc23)n1N	–	> 100	–	> 100	–	> 100	–	> 100	–	> 100	–	> 100	–	> 100	–	> 100	–	–	–	–
NS(=O)(=O)c1ccc(NC(=O)c2cccn3c(=O)c4ccccc4nc23)cc1	–	> 100	–	> 100	–	> 100	–	> 100	–	> 100	–	> 100	–	> 100	–	> 100	–	–	–	–
C[N+](C)=c1nc(N2CCOCC2)ss1	–	> 100	–	> 100	–	> 100	–	> 100	–	> 100	–	–	–	> 100	–	> 100	–	–	–	–
COC(=O)c1cc2c3c(ccc2[nH]1)N(C(=O)c1cc2c4c(ccc2[nH]1)N(C(=O)c1cc2c5c(ccc2[nH]1)N(C(N)=O)CC5)CC4)CC3	–	> 31.9	–	> 100	–	> 100	–	> 100	–	> 30.8	–	> 36	–	> 19.8	–	20.5	–	–	–	–
c1ccc(NC[Si]23OCCN(CCO2)CCO3)cc1	–	> 100	–	> 100	–	> 100	–	> 100	–	> 100	–	> 100	–	> 100	–	> 100	–	–	–	–
COc1nc2c(c(O)c(C)c(=O)n2OC2OC(COC(C)=O)C(OC(C)=O)C(OC(C)=O)C2OC(C)=O)c(=O)n1C (stereo unspecified)	–	> 100	–	> 100	–	> 100	–	–	–	> 100	–	> 100	–	> 100	–	> 100	–	–	–	–
COc1ccc(CC2=NCCc3cc(OC)c(OC)cc32)cc1Br	–	> 100	–	> 100	–	> 100	–	82.6	–	> 100	–	37.4	–	36.6	–	–	–	–	–	–
C[C@@]12CCCC(=O)N1[C@@H](CO)C(c1ccccc1)O2 (stereo partly specified)	–	> 100	–	> 100	–	> 100	–	> 100	–	> 100	–	> 100	–	> 100	–	> 100	–	–	–	–
C=CC1=CC(C)C[C@]1(O)C(=O)OC (stereo partly specified)	> 100	–	> 100	–	< 0.01	–	> 100	–	> 100	–	> 100	–	> 100	–	> 100	–	–	–	–	–
NC(N)=N/N=C/c1c(-c2ccc(Cl)c([N+](=O)[O-])c2)nc2n1CCS2	4.18	15.3	16.1	40	–	–	20.6	51.8	8.89	> 100	15.1	39.8	1.64	3.64	–	–	15.1	2.93	14.5	28.2
